Data on 139 compounds can be found in a melting point compilation (Tetko et al.).

For the data set the following is noted: a range is the spread between reports.

As for `CCN1C(=O)c2ccccc2C1=O`, the melting point was 76 to 79 °C.

With `CCCC(C)=O`, the melting point was -78 to -76.9 °C.

In the case of `CCCCCCCCCCCCCC(=O)CCCCCCCCCCCCC`, the melting point was 77.5 to 78 °C.

As for `OCc1ccc(Cl)cc1Cl`, the melting point was in the range of 59 to 59.5 °C.

`Nc1ccc(C2CCCCC2)cc1` showed a melting point of 53 to 54.5 °C.

On to `c1ccc(OCCOc2ccccc2)cc1`, for which the melting point lay within 95 to 98 °C.

`C=C(C)CC(C)C` showed a melting point of -124 °C.

Turning to `CC(C)(C)C1=CC(=O)C=C(C(C)(C)C)C1=O`, the melting point lay in the range of 66 to 67 °C.

The compound `C=CCC(=O)O` came in with a melting point of -39 to -35 °C.

For `CC(=O)c1ccccc1`, the melting point lay in the range of 19 to 20.5 °C.

Compound `Fc1ccc(N=C=S)cc1` yielded a melting point of 26 to 27 °C.

The compound `Nc1ccccc1I` showed a melting point of 55 to 58 °C.

The compound `OCCOc1ccccc1` had a melting point of 12 to 14 °C.

`O=C(O)CCCCCc1ccccc1` came in with a melting point of 18 to 23 °C.

With `N#CCc1ccccc1`, the melting point is -24 to -23.8 °C.

Turning to `O=[N+]([O-])c1ccccc1CO`, the melting point was in the range of 72 to 74 °C.

Compound `O=Cc1ccc(Cl)cc1` displayed a melting point of 46 to 48.5 °C.

The compound `Cc1ccc(N=C=S)cc1` gave a melting point of 25 to 25.5 °C.

Consider `COc1ccc2c(c1)CCCC2=O`, for which the melting point was 78 to 79 °C.

Regarding `CC(=O)OCC(C(OC(C)=O)c1ccccc1)[N+](=O)[O-]` (centres undefined), the melting point was in the range of 70 to 71 °C.

Compound `Cc1cc(N)ccc1Br` yielded a melting point of 79 to 81 °C.

Consider `Cc1ccccc1Br`, for which the melting point is -28 to -27 °C.

With `O=C(Cl)c1ccc(Cl)cc1Cl`, the melting point is 16.5 to 18 °C.

`CCCCCCCCOC(=O)c1cc(O)c(O)c(O)c1` registered a melting point of 99 to 102 °C.

Regarding `Nc1c(Cl)ccc(Cl)c1C(=O)O`, the melting point lay in the range of 152 to 155 °C.

The compound `O=C(Oc1cccc(O)c1)c1ccccc1` gave a melting point of 132 to 134 °C.

`O=[N+]([O-])c1cc(C(F)(F)F)ccc1Cl` yielded a melting point of -3 to -2.5 °C.

`Nc1cc([N+](=O)[O-])ccc1O` registered a melting point of 143 to 144 °C.

The compound `N#CC1=C(C#N)C(=O)C(Cl)=C(Cl)C1=O` yielded a melting point of 214 to 215 °C.

For the compound `C1OCOCO1`, the melting point was 60.2 to 61 °C.

As to `CC(F)(F)F`, the melting point was -111 °C.

As for `CN(C)c1ccc([N+](=O)[O-])cc1`, the melting point is 164 to 165 °C.

Compound `C=CC(=C)C` came in with a melting point of -146 °C.

Regarding `Oc1cccc(F)c1`, the melting point lay in the range of 10 to 13.7 °C.

The compound `Nc1ncc2ncn(COCCO)c2n1` returned a melting point of 188 to 189 °C.

Turning to `O=[N+]([O-])c1ccc(Oc2ccc(Cl)cc2Cl)cc1`, the melting point was in the range of 70 to 70.5 °C.

As for `CC(=O)Nc1ccc(C(=O)O)cc1`, the melting point was 256 to 260 °C.

With `O=Cc1cc(O)ccc1O`, the melting point was in the range of 98 to 99 °C.

As for `c1ccc2c(c1)CCCC2`, the melting point is -36 to -31 °C.

For `O=P(O)(Oc1ccccc1)Oc1ccccc1`, the melting point lay within 66 to 67.5 °C.

`CC#CCC(C)C` had a melting point of -93 to -92.9 °C.

In turn, `C1=Cc2ccccc2C1` yielded a melting point of -2 to -1.8 °C.

`NCC(CC(=O)O)c1ccc(Cl)cc1` (centres undefined) yielded a melting point of 207 to 208 °C.

The compound `C1CNCCNC1` returned a melting point of 41 to 43.5 °C.

On to `O=C(O)CSCc1ccccc1`, for which the melting point is 61 to 62 °C.

Take `O=C(O)c1ccccc1F`: the melting point fell in the range of 124 to 126 °C.

In turn, `C(#Cc1ccccc1)c1ccccc1` showed a melting point of 60 to 63 °C.

In turn, `C=CC=C` had a melting point of -113 to -109 °C.

`C(CC1CCNCC1)CC1CCNCC1` gave a melting point of 66 to 67.1 °C.

`COc1ccc(Cl)c(Cl)c1Cl`: the melting point was in the range of 69 to 70 °C.

Compound `CCCCCCCCCCCCC(=O)O` registered a melting point of 41.5 to 44.5 °C.

`C=CS(=O)(=O)c1ccccc1` displayed a melting point of 68 to 69 °C.

For `CCC1CCC1`, the melting point was -143 °C.

Turning to `O=C(O)CCCCc1ccccc1`, the melting point was 57.5 to 59 °C.

`CC12CCC(C1)C(C)(C)C2O` (centres undefined) showed a melting point of 43.5 to 48 °C.

For the compound `O=Cc1cccc(C(=O)O)c1`, the melting point fell in the range of 174 to 175 °C.

In the case of `O=C(O)c1c(F)cccc1Cl`, the melting point is 158 to 160 °C.

In the case of `COC(=O)CS(=O)(=O)c1ccccc1`, the melting point lay in the range of 30 to 35 °C.

The compound `CCOc1ccc([N+](=O)[O-])cc1` yielded a melting point of 58 to 60 °C.

With `O=C(c1ccccc1)c1ccccc1O`, the melting point is 39 to 40 °C.

Take `COc1ccc(C(C)=O)cc1`: the melting point was 38 to 38.5 °C.

`CC(C)CC(N)=O` showed a melting point of 136 to 137 °C.

`CCCCCCCCCCCCC=O` came in with a melting point of 14 to 15 °C.

`OC(c1ccccc1)c1ccc(Cl)cc1` (centres undefined) gave a melting point of 60 to 60.8 °C.

The compound `CC(=O)Nc1cccc(C)c1` registered a melting point of 65 to 65.5 °C.

For `CC=CC(C)CC` (centres undefined), the melting point is -126 °C.

Compound `Cc1ccc2n[nH]nc2c1` registered a melting point of 81 °C.

As to `COc1ccc(OC)c(N)c1`, the melting point was 80 to 82.5 °C.

With `CC(C)CCOC=O`, the melting point was -93.5 to -93 °C.

`OCc1ccc(Br)cc1` displayed a melting point of 76 to 78 °C.

Compound `CC(=O)Cl` gave a melting point of -113 to -112 °C.

In turn, `O=C(c1ccccc1)c1ccc(O)cc1O` came in with a melting point of 144 to 146 °C.

Take `CC(=O)Nc1cccc(O)c1`: the melting point was 146 to 148 °C.

As for `O=S(=O)(c1ccccc1)c1ccc(Cl)cc1`, the melting point is 92 to 94 °C.

`O=C(O)CCCCC1SCC2NC(=O)NC21` (centres undefined) registered a melting point of 230 to 232 °C.

On to `Fc1c(F)c(F)c(-c2c(F)c(F)c(F)c(F)c2F)c(F)c1F`, for which the melting point was 67 to 68 °C.

For the compound `CCc1ccccc1Br`, the melting point was -68 to -67.9 °C.

With `COc1ccc(C2CC(=O)c3c(O)cc(O)cc3O2)cc1O` (centres undefined), the melting point was in the range of 228 to 230 °C.

`c1cnc2c(c1)ccc1cccnc12` displayed a melting point of 117 to 118 °C.

Compound `CC(=O)C(=O)O` had a melting point of 11 to 13.8 °C.

`O=C(O)CCC(=O)c1ccccc1`: the melting point lay in the range of 117 to 118 °C.

`CCCCCCOC(C)=O` yielded a melting point of -80.9 to -80 °C.

Consider `CCCCCCN`, for which the melting point was -23 to -19 °C.

Compound `C=CCCC=C` showed a melting point of -141 °C.

`CCOc1ccc(C#N)cc1` came in with a melting point of 61.5 to 62 °C.

Turning to `CC(C)(Cl)Cl`, the melting point is -34 to -33.8 °C.

Regarding `C#CCCO`, the melting point was -63.6 to -63 °C.

With `CC(=O)Nc1ccccc1[N+](=O)[O-]`, the melting point lay in the range of 92 to 94 °C.

With `CCCCCCCCCCCCCCCCCCCCCCO`, the melting point is 70 to 72.5 °C.

In turn, `CCCC(C)=C(C)C` had a melting point of -115 °C.

Take `C=Cc1ccc(F)cc1`: the melting point is -36 to -34.5 °C.

For `Fc1cc(F)c(F)c(F)c1F`, the melting point was -48 to -47.3 °C.

`NC(=O)c1ccc([N+](=O)[O-])cc1` yielded a melting point of 200 to 202 °C.

With `CC(C)(O)c1ccccc1`, the melting point lay in the range of 32 to 36 °C.

The compound `O=C(CCC(=O)c1ccccc1)c1ccccc1` displayed a melting point of 144 to 146 °C.

`N#CCc1ccccc1Cl` had a melting point of 23 to 24 °C.

Take `O=C=Nc1cccc(N=C=O)c1`: the melting point lay within 48 to 50 °C.

Compound `CN1CCN(C2=Nc3cc(Cl)ccc3Nc3ccccc32)CC1` yielded a melting point of 184 °C.

Turning to `CN(C)C=O`, the melting point is -61 to -60.4 °C.

Turning to `Clc1cccc(Br)c1`, the melting point was -22 to -21.5 °C.

For `Cc1cc(O)c(C(C)C)cc1C1(c2cc(C(C)C)c(O)cc2C)OC(=O)c2ccccc21`, the melting point was in the range of 250 to 253 °C.

In turn, `Cc1cc(Br)ccc1O` came in with a melting point of 64 to 64.7 °C.

`O=CC1CCCCC1` displayed a melting point of 34.5 to 35 °C.

Compound `CC(C)O` yielded a melting point of -90 to -88 °C.

`c1ccc2cnncc2c1` came in with a melting point of 90.5 to 91 °C.

Compound `Oc1ccc(I)cc1` gave a melting point of 92 to 94 °C.

The compound `CCCCC#N` had a melting point of -96.2 to -96 °C.

As for `c1ccc2c(c1)ccc1cccnc12`, the melting point fell in the range of 50 to 52 °C.

The compound `O=C(O)C=Cc1cccc(Br)c1` displayed a melting point of 177 to 180 °C.

Compound `CCCCC1(CC)C(=O)NC(=O)NC1=O` displayed a melting point of 126 to 128 °C.

On to `COc1ccc(NC(=O)N(C)C)cc1Cl`, for which the melting point is 126 to 127 °C.

In turn, `CN(C)C(=O)Nc1ccc(Cl)c(Cl)c1` showed a melting point of 158 to 159 °C.

Regarding `COc1cc(CCC(C)=O)ccc1O`, the melting point lay in the range of 40.5 to 41 °C.

In the case of `COCCOc1c(OC)cc(Cc2cnc(N)nc2N)cc1OC`, the melting point was found to be 154 °C.

Turning to `CC(C)(C)OO`, the melting point is -8 to -3 °C.

On to `C=CC(N)=O`, for which the melting point is 84 to 84.5 °C.

Turning to `NC(=O)c1c(Cl)cccc1Cl`, the melting point lay in the range of 198 to 199 °C.

In turn, `Cc1cc(C)c(C)c(C)c1` displayed a melting point of -24 to -23.7 °C.

`O=[N+]([O-])c1cccc2cccc([N+](=O)[O-])c12` came in with a melting point of 172 to 173 °C.

Consider `CCCCCCCCCCCCCCCCS`, for which the melting point is 19 to 21 °C.

Compound `CC1(C)OC(=O)NC1=O` returned a melting point of 76.5 to 79 °C.

With `COC(=O)c1ccc(N)cc1`, the melting point lay within 110 to 114 °C.

In the case of `CC(N)=S`, the melting point is 112 to 116 °C.

With `CCCCCCCCCCCCCCCCBr`, the melting point fell in the range of 17 to 18 °C.

`O=C(O)c1cc(Cl)cc(Cl)c1O`: the melting point was in the range of 220 to 224 °C.

Regarding `BrCBr`, the melting point was -53 to -52 °C.

In the case of `Cc1ccccc1C`, the melting point is -25.2 to -25 °C.

The compound `CC(=O)c1ccc(O)c(O)c1O` had a melting point of 171 to 173 °C.

In the case of `COc1ccccc1N`, the melting point was in the range of 5 to 6.2 °C.

`CCCCCCCCCCCCN(C)C` yielded a melting point of -20 to -15 °C.

Regarding `Clc1ccc(Cl)c(Cl)c1Cl`, the melting point lay within 47 to 47.5 °C.

Take `ClC1=C(Cl)[C@]2(Cl)[C@@H]3[C@@H]4C[C@@H]([C@H]5O[C@@H]45)[C@@H]3[C@@]1(Cl)C2(Cl)Cl`: the melting point is 175 to 176 °C.

The compound `CC1=C(C)CCC1` displayed a melting point of -90.4 to -90 °C.

On to `CCCCCCCCCCCCCO`, for which the melting point was in the range of 32.5 to 34 °C.

Compound `COc1cccc(C(=O)O)c1` registered a melting point of 103 to 107 °C.

With `O=NN1CN2CN(C1)CN(N=O)C2`, the melting point is 204 to 207 °C.

For the compound `Nc1c(Cl)c(Cl)c(Cl)c(Cl)c1Cl`, the melting point lay within 232 to 235 °C.

In turn, `CC1CC1(C)C` (centres undefined) displayed a melting point of -138 °C.

`CC#CC#CC` returned a melting point of 67 to 67.8 °C.

A word on the melting point: it is the temperature, or range, at which the solid turns liquid.
